From patent US20150225369A1, “DDR2 INHIBITORS FOR THE TREATMENT OF OSTEOARTHRITIS” (Merck Patent GmbH, priority 2012, published 2015)

target: T1, HEK293 transfected with human DDR2 (Homo sapiens, UniProt Q16832); assay: Phospho-DDR2 cellular assay (collagen II induced DDR2 phosphorylation, ELISA); format: cell-based; settings: cellular phospho-DDR2; read-out: IC50 [p-DDR2]
T1 construct: expressed in transfected cells; host or cells: HEK293 (PLT460F_(DDR2)-P7-1)
T1 sequence (Q16832 22-855): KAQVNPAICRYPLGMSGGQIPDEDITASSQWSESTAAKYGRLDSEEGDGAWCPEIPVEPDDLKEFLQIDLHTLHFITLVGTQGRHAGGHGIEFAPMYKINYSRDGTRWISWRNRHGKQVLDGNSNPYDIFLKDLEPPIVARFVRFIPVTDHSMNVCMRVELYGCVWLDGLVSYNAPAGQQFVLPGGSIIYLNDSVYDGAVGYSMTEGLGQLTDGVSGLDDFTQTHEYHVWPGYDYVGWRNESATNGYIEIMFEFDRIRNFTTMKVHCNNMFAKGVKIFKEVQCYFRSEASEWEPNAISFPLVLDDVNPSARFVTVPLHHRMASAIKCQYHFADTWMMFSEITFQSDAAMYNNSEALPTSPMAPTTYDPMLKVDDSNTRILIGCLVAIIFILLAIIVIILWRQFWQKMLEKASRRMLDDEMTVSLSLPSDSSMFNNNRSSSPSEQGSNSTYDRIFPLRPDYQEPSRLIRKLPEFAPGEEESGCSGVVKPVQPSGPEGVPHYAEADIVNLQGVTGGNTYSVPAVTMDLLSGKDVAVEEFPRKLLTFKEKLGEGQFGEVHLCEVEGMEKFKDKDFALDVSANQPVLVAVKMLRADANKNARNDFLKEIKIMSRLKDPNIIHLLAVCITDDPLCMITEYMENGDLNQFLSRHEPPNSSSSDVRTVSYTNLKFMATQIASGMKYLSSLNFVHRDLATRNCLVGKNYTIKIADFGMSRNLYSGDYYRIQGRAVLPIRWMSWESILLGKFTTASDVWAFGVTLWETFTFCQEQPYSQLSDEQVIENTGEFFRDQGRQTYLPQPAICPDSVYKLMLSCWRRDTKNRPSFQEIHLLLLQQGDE
Protocol: Assays were performed in a 384 well plate format, using cell line HEK293 transfected with human DDR2 (PLT460F_(DDR2)-P7-1)
Cells were seeded at a density of 10'000 cells/well in 384well poly-D-lysine coated Black/clear plate (Cellcoat Greiner) and incubated in DMEM medium in the presence of 10% fetal bovine serum at 37° C., 5% CO2 for 48 h. Medium was replaced by serum-free medium and cells were incubated at 37° C., 5% CO2 for 8 h. Compound to be tested in 5% DMSO or 5% DMSO and 50 μg/ml of chicken collagen II were added and cells were incubated at 37° C., 5% CO2 for 16 h
Cells were rinsed with ice-cold PBS, lysed with lysis buffer (M-PER Thermo #78501) for 30 min at room temperature and centrifuged for 1 min at 1000 RPM. In parallel, White High binding 384 well plates (Corning) were coated with mouse anti-human DDR2 capture antibody (R&D Systems kit DuoSet IC Human phospho-DDR2 ELISA), overnight at RT.
An aliquot of cell lysate was transferred to the coated plates and incubated for 2 h at RT. Plates were washed and mouse anti-phospho-tyrosine detection antibody (R&D Systems kit DuoSet IC Human phospho-DDR2 ELISA) conjugated to horse radish peroxidase (HRP) was added for 2 h at RT. Plates were washed and chemiluminescent substrate for HRP (Thermo) was added for 15 min at RT. Luminescence was measured on a luminometer.

Structure (SMILES)	IC50 [nM]
CNC(=O)c1cc(Oc2ccc(CNC(=O)Nc3cc(C(F)(F)F)ccc3-n3ccnn3)cc2)ccn1 [compound 206, 4-{4-[3-(2-[1,2,3]Triazol-1-yl-5-trifluoromethyl-phenyl)-ureidomethyl]-phenoxy}-pyridine-2-carboxylic acid methylamide]	31
CNC(=O)c1cc(Oc2ccc(CNC(=O)Nc3cccc(S(N)(=O)=O)c3)cc2)ccn1 [compound 157, 4-{4-[3-(3-Sulfamoyl-phenyl)-ureidomethyl]-phenoxy}-pyridine-2-carboxylic acid methylamide]	500
CNC(=O)c1cc(Oc2ccc(CNC(=O)Nc3ccccc3CO)cc2C)ccn1 [compound 198, 4-{4-[3-(2-Hydroxymethyl-phenyl)-ureidomethyl]-2-methyl-phenoxy}-pyridine-2-carboxylic acid methylamide]	7500
CNC(=O)c1cc(Oc2ccc(CNC(=O)Nc3cccc(S(=O)(=O)NC(C)C)c3)cc2)ccn1 [compound 158, 4-{4-[3-(3-Isopropylsulfamoyl-phenyl)-ureidomethyl]-phenoxy}-pyridine-2-carboxylic acid methylamide]	100000
CNCCNC(=O)c1cc(Oc2ccc(CNC(=O)Nc3ccc(Cl)c(C(F)(F)F)c3)cc2)ccn1 [compound 149, 4-{4-[3-(4-Chloro-3-trifluoromethyl-phenyl)-ureidomethyl]-phenoxy}-pyridine-2-carboxylic acid (2-methylamino-ethyl)-amide]	925
CNC(=O)c1cc(Oc2ccc(CNC(=O)Nc3ccc4nsnc4c3)cc2)ccn1 [compound 76, 4-{4-[(3-Benzo[1,2,5]thiadiazol-5-yl-ureido)-methyl]-phenoxy}-pyridine-2-carboxylic acid methylamide]	670
CNC(=O)c1cc(Oc2ccc(CNC(=O)Nc3cc(C(F)(F)F)ccc3CC(N)=O)cc2C)ccn1 [compound 207, 4-{4-[3-(2-Carbamoylmethyl-5-trifluoromethyl-phenyl)-ureidomethyl]-2-methyl-phenoxy}-pyridine-2-carboxylic acid methylamide]	285
CNC(=O)c1cc(Oc2ccc(CNC(=O)Nc3cc(C(F)(F)F)ccc3N3CCNCC3)cc2)ccn1 [compound 122, 4-{4-[3-(2-Piperazin-1-yl-5-trifluoromethyl-phenyl)-ureidomethyl]-phenoxy}-pyridine-2-carboxylic acid methylamide]	135
O=C(NCc1ccc(Oc2ccnc(C(=O)O)c2)cc1)Nc1ccc(Cl)c(C(F)(F)F)c1 [compound 99, 4-{4-[3-(4-Chloro-3-trifluoromethyl-phenyl)-ureidomethyl]-phenoxy}-pyridine-2-carboxylic acid]	2850
CNC(=O)c1cc(Oc2ccc(CNC(=O)Nc3cc(C(F)(F)F)ccc3-n3cncn3)cc2)ccn1 [compound 201, 4-{4-[3-(2-[1,2,4]Triazol-1-yl-5-trifluoromethyl-phenyl)-ureidomethyl]-phenoxy}-pyridine-2-carboxylic acid methylamide]	41
CNC(=O)c1cc(Oc2ccc(CNC(=O)Nc3ccc(Cl)c(Cl)c3)cc2)ccn1 [compound 3]	195
CNC(=O)c1cc(Oc2ccc(CNC(=O)Nc3cc(C)c(Cl)cc3N(C)CCN(C)C)cc2C)ccn1 [compound 164, 4-[4-(3-{4-Chloro-2-[(2-dimethylamino-ethyl)-methyl-amino]-5-methyl-phenyl}-ureidomethyl)-2-methyl-phenoxy]-pyridine-2-carboxylic acid methylamide]	300
CNC(=O)c1cc(Oc2ccc(CNC(=O)Nc3ccc(Cl)cc3Cl)cc2)ccn1 [compound 8]	255
CNC(=O)c1cc(Oc2ccc(CNC(=O)Nc3cc(C)on3)cc2)ccn1 [compound 236, 4-{4-[3-(5-Methyl-isoxazol-3-yl)-ureidomethyl]-phenoxy}-pyridine-2-carboxylic acid methylamide]	2050
CNC(=O)c1cc(Oc2ccc(CNC(=O)Nc3cc(C(F)(F)F)ccc3-n3cncn3)cc2F)ccn1 [compound 235, 4-{2-Fluoro-4-[3-(2-[1,2,4]triazol-1-yl-5-trifluoromethyl-phenyl)-ureidomethyl]-phenoxy}-pyridine-2-carboxylic acid methylamide]	27
CNC(=O)c1cc(Oc2ccc(C(C)NC(=O)Nc3ccc(Cl)c(Cl)c3)cc2)ccn1 (stereo not shown) [compound 71, 4-(4-{1-[3-(3,4-Dichloro-phenyl)-ureido]-ethyl}-phenoxy)-pyridine-2-carboxylic acid methylamide]	1800
CNC(=O)c1cc(Oc2ccc(CNC(=O)Nc3cc(C(F)(F)F)ccc3CC(=O)O)cc2C)ccn1 [compound 220, (2-{3-[3-Methyl-4-(2-methylcarbamoyl-pyridin-4-yloxy)-benzyl]-ureido}-4-trifluoromethyl-phenyl)-acetic acid]	23500
CNC(=O)c1cc(Oc2ccc(CNC(=O)Nc3cc(C(F)(F)F)ccc3CN)cc2C)ccn1 [compound 221, 4-{4-[3-(2-Aminomethyl-5-trifluoromethyl-phenyl)-ureidomethyl]-2-methyl-phenoxy}-pyridine-2-carboxylic acid methylamide]	180
CNC(=O)Cc1ccc(C(F)(F)F)cc1NC(=O)NCc1ccc(Oc2ccnc(C(=O)NC)c2)c(C)c1 [compound 200, 4-{2-Methyl-4-[3-(2-methylcarbamoylmethyl-5-trifluoromethyl-phenyl)-ureidomethyl]-phenoxy}-pyridine-2-carboxylic acid methylamide]	455
CNC(=O)c1cc(Oc2ccc(CNC(=O)Nc3ccc(N4CCOCC4=O)c(Cl)c3)cc2)ccn1 [compound 225, 4-(4-{3-[3-Chloro-4-(3-oxo-morpholin-4-yl)-phenyl]-ureidomethyl}-phenoxy)-pyridine-2-carboxylic acid methylamide]	8800
CNC(=O)c1cc(Oc2ccc(CNC(=O)Nc3cc(C(F)(F)F)ccc3-n3ccnn3)cc2C)ccn1 [compound 203, 4-{2-Methyl-4-[3-(2-[1,2,3]triazol-1-yl-5-trifluoromethyl-phenyl)-ureidomethyl]-phenoxy}-pyridine-2-carboxylic acid methylamide]	19
CNC(=O)c1cc(Oc2ccc(CNC(=O)Nc3cc(Cl)c(Cl)cc3Cl)cc2)ccn1 [compound 23]	100
CNC(=O)c1cc(Oc2ccc(CNC(=O)Nc3cc(C(F)(F)F)ccc3CN3CCNCC3)cc2)ccn1 [compound 192, 4-{4-[3-(2-Piperazin-1-ylmethyl-5-trifluoromethyl-phenyl)-ureidomethyl]-phenoxy}-pyridine-2-carboxylic acid methylamide]	1150
CNC(=O)c1cc(Oc2ccc(CNC(=O)Nc3cc(C(F)(F)F)ccc3N3CCNCC3)cc2C)ccn1 [compound 184, 4-{2-Methyl-4-[3-(2-piperazin-1-yl-5-trifluoromethyl-phenyl)-ureidomethyl]-phenoxy}-pyridine-2-carboxylic acid methylamide]	76
CNC(=O)c1cc(Oc2ccc(C(C)NC(=O)Nc3cc(Cl)c(Cl)cc3Cl)cc2)ccn1 (stereo not shown) [compound 70, 4-(4-{1-[3-(2,4,5-Trichloro-phenyl)-ureido]-ethyl}-phenoxy)-pyridine-2-carboxylic acid methylamide]	735
